US11584712B2, “Alkylamine-substituted perthiocarbamates as dual precursors to hydropersulfide and carbonyl sulfide” (The Johns Hopkins University, priority 2020, dated 2023)

Experiments:
[1] = system: isolated-perfused murine heart; assay: Isolated perfused heart (Langendorff) ischemia-reperfusion, infarct size by TTC staining; conditions: ex vivo mouse heart, 20 min global ischemia, 100 μM infused first 7 min of 90 min reperfusion; KH control 42%
From the text: Male C57BL/6J mice obtained from Jackson Laboratories (Bar Harbor, Me., USA) were used for all experiments. Mice were between 12 and 14 weeks of age at the time of experimentation. All animals received humane care in compliance with the “Principles of Laboratory Animal Care” formulated by the National Society for Medical Research and the “Guide for the Care and Use of Laboratory Animals” published by the US National Institutes of Health. The Animal Care and Use Committee from Johns Hopkins University approved of this study.
After anticoagulation with heparin and cervical dislocation, a thoracotomy was performed and the heart was quickly excised and placed in ice-cold Krebs-Henseleit buffer (in mmol/L: 11.1 D-glucose, 1.2 MgSO4, 1.2 KH2PO4, 4.7 KCl, 118 NaCl, 2 CaCl2), 25 NaHCO3). The aorta was cannulated, and the heart was perfused with Krebs-Henseleit buffer (oxygenated with 95% O2/5% CO2 and maintained at pH 7.4) in retrograde fashion at a constant pressure of 80 mm/Hg at 37° C. After baseline equilibration for 20 min, mouse hearts were subjected to 20 min of no-flow global ischemia followed by 90 min of reperfusion. Pharmacological postconditioning with 7b (100 μM) was performed at the onset of reperfusion for 7 min. Hearts were then reperfused for a total of 90 min. Control hearts received no pharmacological postconditioning. […]

[2] = RSSH generation and quantification of cyclic ureas by UPLC-MS with HPE-IAM or NEM trap; format: physicochemical; conditions: precursor 10 μM, pH 7.4 ammonium bicarbonate buffer; for yield of cyclic urea byproduct: HPE-IAM 500 μM (50 equiv.), 37° C.; for cyclic urea byproduct formation: HPE-IAM 500 μM, 37° C. (7a 15 min, 7c 7 h)
Protocol: Precursor 1a was dissolved in DMSO to afford a 1 mM stock solution. Similarly, HPE-IAM and N-ethyl maleimide (NEM) were independently dissolved in DMSO to obtain 50 mM stock solutions. To a 20 mL scintillation vial, HPE-IAM or NEM (30 μL, 50 mM) was added in pH 7.4 ammonium bicarbonate buffer (2.94 mL) containing the DTPA (100 μM). The resulting solution was pre-incubated at 37° C. for 10 min. Precursor 1a (30 μL, 1 mM) was then added into the mixture and incubated for 15 min at 37° C. An aliquot of the reaction mixture (500 μL) was withdrawn, 4-hydroxyphenylacetamide (10 μM) was added as internal standard, and analyzed using UPLC-MS as follows: Mobile phase: 0-1 min 90% water+0% ACN+10% formic acid (0.1%); 1-7.5 min gradient up to 10% water+80% ACN+10% formic acid (0.1%); 7.5-8.4 min 10% water+80% ACN+10% formic acid (0.1%); 8.4-8.5 min gradient up to 90% water+0% ACN+10% formic acid (0.1%), 8.5-10 min 90% water+0% ACN+10% formic acid (0.1%). Flow rate=0.3 mL/min. […] These studies were conducted at least in triplicate and representative spectra are presented.
Precursors 7a-d (10 μM) were independently incubated with HPE-IAM (500 μM) in pH 7.4 ammonium bicarbonate buffer (50 mM) containing DTPA (100 μM) at 37° C. The reaction mixture (500 μL) was analyzed using UPLC-MS. To quantify 2a-d generated from these precursors, a calibration curve of each individual cyclic urea with known concentrations was independently generated.
Precursor 1a was dissolved in DMSO to afford a 1 mM stock solution. Similarly, HPE-IAM was dissolved in DMSO to obtain a 50 mM stock solution. To a 20 mL scintillation vial, HPE-IAM (30 μL, 50 mM) was added in pH 7.4 ammonium bicarbonate buffer (2.94 mL) containing the DTPA (100 μM). The resulting solution was pre-incubated at 37° C. for 10 min. Precursor 1a (30 μL, 1 mM) was then added into the mixture and incubated for 15 min at 37° C. An aliquot of the reaction mixture (500 μL) was withdrawn and analyzed using UPLC-MS as follows: Mobile phase: 0-1 min 90% water+0% ACN+10% formic acid (0.1%); 1-7.5 min gradient up to 10% water+80% ACN+10% formic acid (0.1%); 7.5-8.4 min 10% water+80% ACN+10% formic acid (0.1%); 8.4-8.5 min gradient up to 90% water+0% ACN+10% formic acid (0.1%), 8.5-10 min 90% water+0% ACN+10% formic acid (0.1%). Flow rate=0.3 mL/min. The mass signals for product of RSSH trapping with HPE-IAM were obtained via deconvolution using MassLynx 4.1 software. These studies were conducted at least in triplicate and representative spectra are presented.
Precursors 7a-d (10 μM) were independently incubated with HPE-IAM (500 μM) in pH 7.4 ammonium bicarbonate buffer (50 mM) containing DTPA (100 μM) at 37° C. This reaction mixture was analyzed by UPLC-MS as follows: Mobile phase: 0-1 min 90% water+0% ACN+10% formic acid (0.1%); 1-7.5 min gradient up to 10% water+80% ACN+10% formic acid (0.1%); 7.5-8.4 min 10% water+80% ACN+10% formic acid (0.1%); 8.4-8.5 min gradient up to 90% water+0% ACN+10% formic acid (0.1%), 8.5-10 min 90% water+0% ACN+10% formic acid (0.1%). Flow rate=0.3 mL/min. To quantify 2a-d generated from these precursors, a calibration curve of each individual cyclic urea with known concentrations was independently generated.

Compound | infarct size [1] [%] | yield of cyclic urea byproduct [2] [%] | cyclic urea byproduct formation [2] [µM]
COC(=O)C(NC(C)=O)C(C)(C)SSC(=O)N(C)CCN (centres unmarked) [Precursor 7b, 2-(((3-acetamido-4-methoxy-2-methyl-4-oxobutan-2-yl)disulfannecarbonyl)(methyl)amino)ethan-1-aminium] | 16 |  | 
3-(((3-acetamido-4-methoxy-2-methyl-4-oxobutan-2-yl)disulfannecarbonyl)(methyl)amino)-N-methylpropan-1-aminium [Precursor 7c] |  | 88 | 8.8 ± 0.2
CNCCN(C)C(=O)SSC(C)(C)C(NC(C)=O)C(=O)OC (centres unmarked) [Precursor 7a, 2-(((3-acetamido-4-methoxy-2-methyl-4-oxobutan-2-yl)disulfannecarbonyl)(methyl)amino)-N-methylethan-1-aminium] |  | 87 | 8.7 ± 0.4
